Values quoted from earlier work in patent US20110064813A1, “USE OF SALSALATE WITH OR WITHOUT CAFFEINE AND WITH OR WITHOUT OMEGA 3, AND OTHER PHARMACEUTICAL COMPOUNDS IN A DISTINCTIVELY UNIQUE NANO-PARTICULATE CAPSULE AND TABLET” (priority 2009, published 2011).

Legend:
[1] = system: patients presenting with Type 2 Diabetes (T2D); settings: tablet forms of salsalate; T2D patients and obese patients
[2] = system: patients with rheumatoid arthritis; settings: compared with diclofenac
[3] = acidic conditions
pro-thrombin time = settings: unlike Aspirin
[4] = administered orally
[5] = compared with aspirin and other NSAIDS

What does the source list for `O=C(Oc1ccccc1C(=O)O)c1ccccc1O` [salsalate, 2-(2-Hydroxybenzoyl)oxybenzoic acid]?
lowering of glucose levels [1]: experienced efficacy in the lowering of glucose levels; salsalate induced liver dysfunction (HIV-infected patients; HIV patients): a significant number of HIV patients experienced salsalate induced liver dysfunction; endothelial function (HIV-infected patients; HIV-infected patients): improved endothelial function; clinical efficacy [2]: equal to diclofenac; solubility [3]: nearly insoluble; inhibition of pro-thrombin time (pro-thrombin time): does not inhibit; time to full benefit (plasma salicylate steady state) [4]: 3 to 4 days; fecal gastrointestinal blood loss [5]: less fecal gastrointestinal blood loss than aspirin
